The target of test [1] is human recombinant FGFR1 (Homo sapiens, UniProt P11362). The experiment in a line: FGFR1 enzyme assay (LabChip EZ Reader).
Protocol: (§1) The compound was diluted with a solution of dimethyl sulfoxide (DMSO) (10-fold common ratio, 4 portions) before dilution with a reaction buffer (100 mM HEPES (pH7.5), 0.003% Brij-35, 0.004% Tween 20, 0.5 mM DTT, and 10 mM MgCl2) so that the final DMSO concentration was 2%. To 4 μL of the compound solution in a 384-well plate, 2 μL each of FGFR1 enzyme (2 or 3 ng/μL), FGFR2 enzyme (2 ng/μL), or FGFR3 enzyme (6 ng/μL) which were diluted with the reaction buffer was added. […] After the reaction was stopped, the reaction mixture was measured with a LabChip EZ Reader. The IC50 values were calculated by non-linear regression based on the inhibition rates obtained.
In test [2] the test system is bladder cancer patient-derived cell line RT-112. Briefly: Anchorage-independent cell growth inhibition, spheroid plate. In kind it is cell-based. Particulars: Homo sapiens, RT-112, 96 h, 4 days, read-out: growth inhibition rate RT-112.
For test [3], the system named is bladder cancer patient-derived cell line RT4. The description is as above. In kind it is cell-based. To be noted: Homo sapiens, 96 h, 4 days, read-out: growth inhibition rate RT4; for inhibition at 0.001 µM: 1 nM; for inhibition at 0.01 µM: 10 nM; for inhibition at 0.1 µM: 100 nM.
Test [4] has as its target human recombinant FGFR2 (Homo sapiens, UniProt P21802). The experiment in a line: FGFR2 enzyme assay (LabChip EZ Reader).
Protocol: as §1
The subject of test [5] is UM-UC-14 (FGFR3_S249C-positive cells, bladder cancer). The experiment in a line: Antitumor test on UM-UC-14 subcutaneous xenograft. In kind it is in vivo, nude mice. To be noted: oral, 1 mg/kg/day, once a day, tumor volume at Day 11 vs Day 1. As to the method: 3×10^6 UM-UC-14 cells per 0.1 mL (PBS+matrigel, 1:1) were inoculated subcutaneously into the right flank of nude mice (CAnN, Cg-Foxn1nu/CrlCrlj (nu/nu), male, 4- to 5-week-old), and when their tumor size reached about 250 mm^3, drug administration was started (Day 1). The drug was administered once a day and the tumor size was measured with a caliper and the body weight was also measured every two or three days. The antitumor effect was finally determined based on the tumor volume (mm^3; minor axis (mm)×minor axis (mm)×major axis (mm)/2) at Day 11 (n=3-5). To the control group, 0.5% MC (methyl cellulose) was administered. […] “% regression” indicates what percentage of regression could be achieved compared with the tumor volume at Day 1. Here, the tumor volume at Day 1 means tumor volume immediately before drug administration.

The test system of test [6] is FGFR3-TACC3_v4-expressing NIH3T3 cells. The experiment in a line: Anchorage-independent cell growth inhibition, spheroid plate. To be noted: Mus musculus, NIH3T3, 96 h, 4 days, read-out: growth inhibition rate v4. In kind it is cell-based. The text has this: Measurement for anchorage-independent cell growth (colony method, etc.) is known to be a system for investigating the anticancer action (pharmacological effect) of compounds (Clinical Oncology, second edition, Cancer and Chemotherapy Publishers Inc.). As a method for measuring the non-adhesive growth of cells, there is the following method using a spheroid plate as referred to above in place of the colony method.
In a 96-well spheroid plate (Sumilon Celltight Spheroid 96U; Sumitomo Bakelite), FGFR3-TACC3_v1-expressing NIH3T3 cells, FGFR3-TACC3_v2-expressing NIH3T3 cells, FGFR3-TACC3_v3-expressing NIH3T3 cells, and FGFR3-TACC3_v4-expressing NIH3T3 cells were each seeded at 1×10^3 cells per well in D-MEM media (Invitrogen) containing 10% fetal bovine serum. […] A well supplemented with only medium was also prepared for a positive control. Culturing was performed overnight in the presence of 5% CO2 at 37° C. followed by addition of test compounds (final concentrations: 100 nM, 10 nM, and 1 nM). As a negative control, DMSO used as a solvent for the compounds was added at the same concentration (0.1%) as in the case of addition of the compounds. Then, culturing was performed in the presence of 5% CO2 at 37° C. for 4 days, and a cell counting reagent (CellTiter-Glo™ Luminescent Cell Viability Assay; Promega) was added and the resulting mixture was stirred for 20 minutes followed by measurement with a luminometer.

Test [7] deals with FGFR3-TACC3_v2 (N-FLAG) fusion polypeptide. The experiment in a line: In vitro kinase activity inhibition (HTRF KinEASE-TK). To be noted: 100 μM ATP. In kind it is biochemical, human. In general terms: Time-resolved FRET reads energy transfer from a long-lived donor to a nearby acceptor.
The test system of test [8] is FGFR3_S249C/NIH3T3 cells. Briefly: Growth assay of cells with forced expression of mutant FGFR3. It is filed as cell-based. Particulars: Mus musculus, NIH3T3, 120 h; 5 days after addition, CellTiter-Glo; read-out: IC50 (growth inhibition). As to the method:
FGFR3_S249C/NIH3T3 cells were added to a 96-well spheroid plate (U bottom) at a concentration of 3000 cells/well/90 μL, and the compound solution (10 μL) was added thereto on the next day (final DMSO concentration: 0.1%). The compound solution was prepared by serially diluting the compound with DMSO at a 3-fold common ratio (9 portions and DMSO only) from the maximum concentration of 10 mM and then diluted 100-fold with a culture medium (D-MEM, 10% FBS). 5 days after the addition of the compound, the growth inhibition caused by the compound was evaluated by Promega (G7573) CellTiter-Glo™ Luminescent Cell Viability Assay.
Background: In ATP-based viability assays light output follows the ATP content of the culture.

In test [9] the test system is FGFR3-TACC3_v3 (N-FLAG) fusion polypeptide. The experiment in a line: In vitro kinase activity inhibition (HTRF KinEASE-TK). It is filed as biochemical, human. Particulars: 100 μM ATP.
The test system of test [10] is FGFR3-BAIAP2L1-expressing NIH3T3 cells. The experiment in a line: Anchorage-independent cell growth inhibition, spheroid plate. It is filed as cell-based. Particulars: Mus musculus, NIH3T3, 96 h, 4 days, read-out: growth inhibition rate FGFR3-BAIAP2L1-expressing NIH3T3 Cells. The procedure:
In a 96-well spheroid plate (Sumilon Celltight Spheroid 96U; Sumitomo Bakelite), FGFR3-BAIAP2L1-expressing NIH3T3 cells were seeded at 1×10^3 cells per well in D-MEM medium containing 10% fetal bovine serum. A well supplemented with only medium was also prepared for a positive control. Culturing was performed overnight in the presence of 5% CO2 at 37° C. followed by addition of test compounds (final concentrations: 100 nM, 10 nM, and 1 nM). As a negative control, DMSO used as a solvent for the compounds was added at the same concentration (0.1%) as in the case of addition of the compounds. Then, culturing was performed in the presence of 5% CO2 at 37° C. for 4 days, and a cell counting reagent (CellTiter-Glo™ Luminescent Cell Viability Assay; Promega) was added and the resulting mixture was stirred for 20 minutes followed by measurement with a luminometer.

Test [11] concerns FGFR3-TACC3_v1 (N-FLAG) fusion polypeptide. Briefly: In vitro kinase activity inhibition (HTRF KinEASE-TK). It is filed as biochemical, human. Particulars: 100 μM ATP.
Test [12] deals with human recombinant FGFR3 (Homo sapiens, UniProt P22607). The experiment in a line: FGFR3 enzyme assay (LabChip EZ Reader).
Sequence of human recombinant FGFR3 (P22607 23-806): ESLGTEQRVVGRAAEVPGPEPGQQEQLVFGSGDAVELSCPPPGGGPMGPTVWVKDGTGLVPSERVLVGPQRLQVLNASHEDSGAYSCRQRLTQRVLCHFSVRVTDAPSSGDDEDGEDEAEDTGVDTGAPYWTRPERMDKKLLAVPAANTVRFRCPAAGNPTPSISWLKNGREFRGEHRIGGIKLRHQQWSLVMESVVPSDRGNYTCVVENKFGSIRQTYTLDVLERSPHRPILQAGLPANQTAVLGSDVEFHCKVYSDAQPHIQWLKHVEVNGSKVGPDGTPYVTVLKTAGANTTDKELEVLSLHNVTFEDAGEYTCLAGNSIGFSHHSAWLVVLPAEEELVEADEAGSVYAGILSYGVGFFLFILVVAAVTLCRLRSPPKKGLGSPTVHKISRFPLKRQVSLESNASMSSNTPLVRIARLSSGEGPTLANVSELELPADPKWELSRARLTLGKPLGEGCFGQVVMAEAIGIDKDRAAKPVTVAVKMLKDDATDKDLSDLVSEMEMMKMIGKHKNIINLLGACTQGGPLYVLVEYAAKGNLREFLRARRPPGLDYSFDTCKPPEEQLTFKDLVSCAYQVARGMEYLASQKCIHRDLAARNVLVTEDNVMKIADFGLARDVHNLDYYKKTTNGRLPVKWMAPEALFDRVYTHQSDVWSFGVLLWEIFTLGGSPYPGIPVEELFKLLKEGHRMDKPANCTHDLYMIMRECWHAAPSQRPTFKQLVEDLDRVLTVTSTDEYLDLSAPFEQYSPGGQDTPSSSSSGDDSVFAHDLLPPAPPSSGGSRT
Protocol: as §1

Sequence of human recombinant FGFR2 (P21802 22-821): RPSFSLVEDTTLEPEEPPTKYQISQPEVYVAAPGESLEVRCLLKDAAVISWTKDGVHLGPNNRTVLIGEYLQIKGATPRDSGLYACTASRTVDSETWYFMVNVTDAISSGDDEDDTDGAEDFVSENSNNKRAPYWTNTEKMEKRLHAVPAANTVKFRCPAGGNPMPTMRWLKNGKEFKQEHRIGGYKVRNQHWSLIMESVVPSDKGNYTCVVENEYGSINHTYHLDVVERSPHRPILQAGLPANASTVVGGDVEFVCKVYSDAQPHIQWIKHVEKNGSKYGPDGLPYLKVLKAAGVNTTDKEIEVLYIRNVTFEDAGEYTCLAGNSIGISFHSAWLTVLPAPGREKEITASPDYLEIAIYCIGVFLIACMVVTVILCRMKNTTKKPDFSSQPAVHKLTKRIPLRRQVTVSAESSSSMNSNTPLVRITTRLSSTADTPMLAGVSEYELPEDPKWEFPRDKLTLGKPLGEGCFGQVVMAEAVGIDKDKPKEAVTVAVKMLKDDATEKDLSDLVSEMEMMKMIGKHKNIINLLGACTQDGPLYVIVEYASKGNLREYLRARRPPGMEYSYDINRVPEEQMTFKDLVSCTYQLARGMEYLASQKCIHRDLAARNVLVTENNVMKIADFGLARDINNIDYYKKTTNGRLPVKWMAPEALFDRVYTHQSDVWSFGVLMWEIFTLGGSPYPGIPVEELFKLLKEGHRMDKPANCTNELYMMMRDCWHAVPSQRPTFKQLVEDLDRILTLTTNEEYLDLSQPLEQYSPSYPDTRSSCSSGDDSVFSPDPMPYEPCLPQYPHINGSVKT
Sequence of human recombinant FGFR1 (P11362 22-822): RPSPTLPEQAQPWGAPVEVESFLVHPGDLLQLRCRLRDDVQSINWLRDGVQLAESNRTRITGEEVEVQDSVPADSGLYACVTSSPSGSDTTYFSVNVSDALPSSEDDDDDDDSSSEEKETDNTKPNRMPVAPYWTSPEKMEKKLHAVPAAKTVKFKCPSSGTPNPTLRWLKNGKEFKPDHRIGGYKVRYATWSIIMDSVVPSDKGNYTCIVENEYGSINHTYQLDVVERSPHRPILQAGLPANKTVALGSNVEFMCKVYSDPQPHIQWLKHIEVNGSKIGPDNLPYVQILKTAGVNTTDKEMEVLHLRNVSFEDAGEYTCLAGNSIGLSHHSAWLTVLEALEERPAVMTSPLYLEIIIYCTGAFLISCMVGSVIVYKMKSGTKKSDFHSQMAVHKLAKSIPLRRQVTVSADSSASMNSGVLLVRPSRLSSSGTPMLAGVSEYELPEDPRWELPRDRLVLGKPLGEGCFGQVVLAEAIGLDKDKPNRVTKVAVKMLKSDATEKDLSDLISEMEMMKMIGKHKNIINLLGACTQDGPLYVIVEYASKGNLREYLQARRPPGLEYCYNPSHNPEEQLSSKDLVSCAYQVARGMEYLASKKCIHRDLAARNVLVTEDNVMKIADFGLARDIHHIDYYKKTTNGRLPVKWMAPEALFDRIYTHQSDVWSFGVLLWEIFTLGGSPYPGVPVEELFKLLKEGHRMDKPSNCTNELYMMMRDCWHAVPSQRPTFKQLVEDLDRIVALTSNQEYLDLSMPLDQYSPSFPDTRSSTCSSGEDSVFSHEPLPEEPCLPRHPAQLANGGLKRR

A word on the IC50: it is the concentration that inhibits the measured activity by half. One may read the inhibition as the relative decrease from the control value, in per cent. Take `COc1cc(Nc2ncc(OCc3c(F)c(OC)cc(OC)c3F)cn2)ccc1N1CCC(N2CCN(C)CC2)CC1` [Example 56]: the IC50 in test [1] and in [4] was 2 nM throughout. The inhibition at 0.001 µM was 29% in test [2] (1 nM) and 5% in [3]. Also, the values for the inhibition at 0.01 µM in test [2] (10 nM) and in test [3] were 83% and 42%, respectively. Also, the inhibition at 0.1 µM in [2] (100 nM) came out at 90%; in [3] it was 64%.

Take `COc1cc(OC)c(F)c(COc2cnc(Nc3ccc(N4CCN(C)CC4)cc3)nc2)c1F` [Example 122]: the “Antitumor Activity, % regression” value in test [5] was found to be 15%. Further, the inhibition at 0.001 µM was 19% in [6] (1 nM), 6% in test [3] and 17% in [10] (1 nM). Besides, the inhibition at 0.01 µM in test [6] (10 nM) was 82%; in test [3], 43%; in test [10] (10 nM) it was 83%. Also, the inhibition at 0.1 µM in [6] (100 nM) is 89%; in test [3], 63%; in test [10] (100 nM), 90%. Further, the “rate of inhibiting kinase activity v2” value in test [7] (1 nM) was 27%; in [7] (10 nM), 80%; in test [7] (100 nM), 95%. In addition, the IC50 in test [8] turned out to be 7 nM; in [12] it was 2 nM; in test [4] it was 2 nM. Moreover, the figures for the “rate of inhibiting kinase activity v3” value in [9] (1 nM), in test [9] (10 nM) and in test [9] (100 nM) were 45%, 85% and 97%, respectively. Moreover, the results for the “rate of inhibiting kinase activity v1” value in test [11] (1 nM), in test [11] (10 nM) and in test [11] (100 nM) were 34%, 80% and 94%, respectively.

The values are drawn from patent US9464077B2, “Nitrogen-containing aromatic heterocyclic compound” (Astellas Pharma Inc., priority 2012, dated 2016).
